Source: PubChem BioAssay (NCI)
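These data come from cells grown in 96-well plates and exposed to compound for 48 hours at five concentrations. TGI: total growth inhibition.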

Assays:
Experiment in all cases: NCI tumour cell line growth inhibition, 48 h
786-0 renal = test system: 786-0 renal
IGROV1 ovarian = test system: IGROV1 ovarian
NCI/ADR-RES ovarian = test system: NCI/ADR-RES ovarian
MDA-MB-435 = test system: MDA-MB-435
EKVX NSCLC = test system: EKVX NSCLC
SNB-19 CNS = test system: SNB-19 CNS
MCF7 breast = test system: MCF7 breast
PC-3 prostate = test system: PC-3 prostate
HOP-92 NSCLC = test system: HOP-92 NSCLC
KM12 colon = test system: KM12 colon
HCT-15 colon = test system: HCT-15 colon
RPMI-8226 leukemia = test system: RPMI-8226 leukemia
TK-10 renal = test system: TK-10 renal
MALME-3M melanoma = test system: MALME-3M melanoma
NCI-H522 lung = test system: NCI-H522 lung
SK-MEL-28 melanoma = test system: SK-MEL-28 melanoma
MDA-MB-231 breast = test system: MDA-MB-231 breast
UO-31 renal = test system: UO-31 renal
SK-MEL-2 melanoma = test system: SK-MEL-2 melanoma
UACC-62 melanoma = test system: UACC-62 melanoma

CC(C)(C)OC(=O)NC(Cc1ccc(O)cn1)C(=O)O (stereo unspecified)
TGI (786-0 renal): > 100 µM
TGI (IGROV1 ovarian): > 100 µM
TGI (NCI/ADR-RES ovarian): > 100 µM
TGI (MDA-MB-435): > 100 µM
TGI (EKVX NSCLC): > 100 µM
TGI (SNB-19 CNS): > 100 µM
TGI (MCF7 breast): > 100 µM
TGI (PC-3 prostate): > 100 µM
TGI (HOP-92 NSCLC): > 100 µM
TGI (KM12 colon): > 100 µM
TGI (HCT-15 colon): > 100 µM
TGI (RPMI-8226 leukemia): > 100 µM
TGI (TK-10 renal): > 100 µM
TGI (MALME-3M melanoma): > 100 µM
TGI (NCI-H522 lung): > 100 µM
TGI (SK-MEL-28 melanoma): > 100 µM
TGI (MDA-MB-231 breast): > 100 µM
TGI (UO-31 renal): > 100 µM

CCSc1cc2c(cc1O)CC[C@@H]1[C@@H]2CC[C@]2(C)[C@@H](O)CC[C@@H]12
TGI (786-0 renal): 24.5 µM
TGI (IGROV1 ovarian): 25 µM
TGI (NCI/ADR-RES ovarian): 26.9 µM
TGI (MDA-MB-435): 10.4 µM
TGI (SNB-19 CNS): 25.5 µM
TGI (SK-MEL-2 melanoma): 37.7 µM
TGI (MCF7 breast): 27.5 µM
TGI (PC-3 prostate): 18.9 µM
TGI (HOP-92 NSCLC): 24.3 µM
TGI (KM12 colon): 21.9 µM
TGI (HCT-15 colon): 23.2 µM
TGI (RPMI-8226 leukemia): > 100 µM
TGI (TK-10 renal): 62.3 µM
TGI (UACC-62 melanoma): 27.7 µM
TGI (MALME-3M melanoma): 23.8 µM
TGI (NCI-H522 lung): 19.5 µM
TGI (SK-MEL-28 melanoma): 28.9 µM
TGI (MDA-MB-231 breast): 18.8 µM
TGI (UO-31 renal): 30.1 µM

CCOC(=O)Cn1c(=O)c2nc(SC)sc2n(-c2ccccc2)c1=S
TGI (786-0 renal): 30.9 µM
TGI (IGROV1 ovarian): > 100 µM
TGI (NCI/ADR-RES ovarian): > 100 µM
TGI (MDA-MB-435): > 100 µM
TGI (SNB-19 CNS): 30.6 µM
TGI (SK-MEL-2 melanoma): 63.1 µM
TGI (MCF7 breast): > 100 µM
TGI (PC-3 prostate): 84.4 µM
TGI (HOP-92 NSCLC): 21 µM
TGI (KM12 colon): 94.9 µM
TGI (HCT-15 colon): > 100 µM
TGI (RPMI-8226 leukemia): > 100 µM
TGI (TK-10 renal): 60.1 µM
TGI (UACC-62 melanoma): 11.5 µM
TGI (MALME-3M melanoma): 60.2 µM
TGI (NCI-H522 lung): > 100 µM
TGI (SK-MEL-28 melanoma): > 100 µM
TGI (MDA-MB-231 breast): 72.9 µM
TGI (UO-31 renal): 15 µM

Cc1ccc(-c2n[nH]c(=O)n2NC(=O)c2ccccc2C(=O)O)cc1
TGI (786-0 renal): > 100 µM
TGI (IGROV1 ovarian): > 100 µM
TGI (NCI/ADR-RES ovarian): > 100 µM
TGI (MDA-MB-435): > 100 µM
TGI (SNB-19 CNS): > 100 µM
TGI (SK-MEL-2 melanoma): > 100 µM
TGI (MCF7 breast): > 100 µM
TGI (PC-3 prostate): > 100 µM
TGI (HOP-92 NSCLC): > 100 µM
TGI (KM12 colon): > 100 µM
TGI (HCT-15 colon): > 100 µM
TGI (RPMI-8226 leukemia): > 100 µM
TGI (TK-10 renal): > 100 µM
TGI (UACC-62 melanoma): > 100 µM
TGI (MALME-3M melanoma): > 100 µM
TGI (NCI-H522 lung): > 100 µM
TGI (SK-MEL-28 melanoma): > 100 µM
TGI (MDA-MB-231 breast): > 100 µM
TGI (UO-31 renal): > 100 µM

Cc1ccc(N=NC(=Nc2ccc(Cl)cc2)c2ccc(N(CCC#N)CCC#N)cc2)cc1
TGI (786-0 renal): > 100 µM
TGI (IGROV1 ovarian): > 100 µM
TGI (NCI/ADR-RES ovarian): > 100 µM
TGI (MDA-MB-435): > 100 µM
TGI (EKVX NSCLC): > 100 µM
TGI (SNB-19 CNS): > 100 µM
TGI (MCF7 breast): > 100 µM
TGI (PC-3 prostate): 92 µM
TGI (HOP-92 NSCLC): > 100 µM
TGI (KM12 colon): > 100 µM
TGI (HCT-15 colon): > 100 µM
TGI (RPMI-8226 leukemia): > 100 µM
TGI (TK-10 renal): 95.8 µM
TGI (UACC-62 melanoma): > 100 µM
TGI (NCI-H522 lung): 66 µM
TGI (SK-MEL-28 melanoma): > 100 µM
TGI (MDA-MB-231 breast): 81.8 µM
TGI (UO-31 renal): > 100 µM

C=CCN1C[C@H](C)N([C@@H](c2ccc(C(=O)N3CCCCC3)cc2)c2cccc(OC)c2)C[C@H]1C
TGI (786-0 renal): > 100 µM
TGI (IGROV1 ovarian): > 100 µM
TGI (NCI/ADR-RES ovarian): > 100 µM
TGI (MDA-MB-435): > 100 µM
TGI (EKVX NSCLC): > 100 µM
TGI (SNB-19 CNS): > 100 µM
TGI (SK-MEL-2 melanoma): 60.3 µM
TGI (MCF7 breast): > 100 µM
TGI (PC-3 prostate): 72.2 µM
TGI (HOP-92 NSCLC): > 100 µM
TGI (KM12 colon): > 100 µM
TGI (HCT-15 colon): > 100 µM
TGI (TK-10 renal): > 100 µM
TGI (UACC-62 melanoma): 64.8 µM
TGI (MALME-3M melanoma): 40.7 µM
TGI (NCI-H522 lung): 55 µM
TGI (MDA-MB-231 breast): > 100 µM
TGI (UO-31 renal): > 100 µM

COc1ccc(OC)c(C2CCc3c(cnc4nc(N)nc(N)c34)C2)c1 (stereo unspecified)
TGI (786-0 renal): 18.3 µM
TGI (IGROV1 ovarian): 17.5 µM
TGI (NCI/ADR-RES ovarian): > 100 µM
TGI (MDA-MB-435): 17.1 µM
TGI (EKVX NSCLC): 24.2 µM
TGI (SNB-19 CNS): 21.5 µM
TGI (SK-MEL-2 melanoma): 31.8 µM
TGI (MCF7 breast): 24.3 µM
TGI (PC-3 prostate): 27.5 µM
TGI (HOP-92 NSCLC): 26.3 µM
TGI (KM12 colon): 26.4 µM
TGI (HCT-15 colon): 28.4 µM
TGI (TK-10 renal): 28.7 µM
TGI (UACC-62 melanoma): 12.3 µM
TGI (MALME-3M melanoma): 20.9 µM
TGI (NCI-H522 lung): 21.7 µM
TGI (SK-MEL-28 melanoma): 29.4 µM
TGI (MDA-MB-231 breast): 29.2 µM

COC(=O)c1ccccc1NC(=NC1CCCCCC1)NS(=O)(=O)c1ccc(C)cc1
TGI (786-0 renal): > 100 µM
TGI (IGROV1 ovarian): > 100 µM
TGI (NCI/ADR-RES ovarian): > 100 µM
TGI (MDA-MB-435): > 100 µM
TGI (EKVX NSCLC): > 100 µM
TGI (SNB-19 CNS): > 100 µM
TGI (SK-MEL-2 melanoma): > 100 µM
TGI (MCF7 breast): > 100 µM
TGI (PC-3 prostate): > 100 µM
TGI (HOP-92 NSCLC): > 100 µM
TGI (KM12 colon): > 100 µM
TGI (HCT-15 colon): > 100 µM
TGI (RPMI-8226 leukemia): > 100 µM
TGI (TK-10 renal): > 100 µM
TGI (UACC-62 melanoma): > 100 µM
TGI (NCI-H522 lung): > 100 µM
TGI (SK-MEL-28 melanoma): > 100 µM
TGI (MDA-MB-231 breast): > 100 µM
TGI (UO-31 renal): > 100 µM

CC(=O)OCC1OC(n2c3c(cc(C#N)c2=S)CCC3)C(OC(C)=O)C(OC(C)=O)C1OC(C)=O (stereo unspecified)
TGI (786-0 renal): > 100 µM
TGI (IGROV1 ovarian): > 100 µM
TGI (NCI/ADR-RES ovarian): > 100 µM
TGI (MDA-MB-435): > 100 µM
TGI (SNB-19 CNS): > 100 µM
TGI (SK-MEL-2 melanoma): > 100 µM
TGI (MCF7 breast): > 100 µM
TGI (PC-3 prostate): > 100 µM
TGI (HOP-92 NSCLC): > 100 µM
TGI (KM12 colon): > 100 µM
TGI (HCT-15 colon): > 100 µM
TGI (RPMI-8226 leukemia): > 100 µM
TGI (TK-10 renal): > 100 µM
TGI (UACC-62 melanoma): > 100 µM
TGI (MALME-3M melanoma): > 100 µM
TGI (NCI-H522 lung): > 100 µM
TGI (SK-MEL-28 melanoma): > 100 µM
TGI (MDA-MB-231 breast): > 100 µM
TGI (UO-31 renal): > 100 µM

O=c1[nH]nc(Cc2ccccc2)n1CCCl
TGI (786-0 renal): > 100 µM
TGI (IGROV1 ovarian): > 100 µM
TGI (NCI/ADR-RES ovarian): > 100 µM
TGI (MDA-MB-435): > 100 µM
TGI (EKVX NSCLC): > 100 µM
TGI (SNB-19 CNS): > 100 µM
TGI (SK-MEL-2 melanoma): > 100 µM
TGI (MCF7 breast): > 100 µM
TGI (PC-3 prostate): > 100 µM
TGI (KM12 colon): > 100 µM
TGI (HCT-15 colon): > 100 µM
TGI (RPMI-8226 leukemia): > 100 µM
TGI (UACC-62 melanoma): > 100 µM
TGI (MALME-3M melanoma): > 100 µM
TGI (SK-MEL-28 melanoma): > 100 µM
TGI (MDA-MB-231 breast): > 100 µM
TGI (UO-31 renal): > 100 µM

N#Cc1ccc(N2CCOCC2)cc1
TGI (786-0 renal): > 100 µM
TGI (IGROV1 ovarian): > 100 µM
TGI (NCI/ADR-RES ovarian): > 100 µM
TGI (MDA-MB-435): > 100 µM
TGI (EKVX NSCLC): > 100 µM
TGI (SNB-19 CNS): > 100 µM
TGI (SK-MEL-2 melanoma): > 100 µM
TGI (MCF7 breast): > 100 µM
TGI (PC-3 prostate): > 100 µM
TGI (HOP-92 NSCLC): > 100 µM
TGI (KM12 colon): > 100 µM
TGI (HCT-15 colon): > 100 µM
TGI (TK-10 renal): > 100 µM
TGI (UACC-62 melanoma): > 100 µM
TGI (NCI-H522 lung): > 100 µM
TGI (SK-MEL-28 melanoma): > 100 µM
TGI (MDA-MB-231 breast): > 100 µM
TGI (UO-31 renal): > 100 µM

O=C(OCc1ccc([N+](=O)[O-])cc1)N1c2ccccc2[C@@]23O[C@]24CCC[C@H]3C#C/C=C\C#C[C@H]14
TGI (786-0 renal): > 100 µM
TGI (IGROV1 ovarian): > 100 µM
TGI (NCI/ADR-RES ovarian): > 100 µM
TGI (MDA-MB-435): > 100 µM
TGI (EKVX NSCLC): > 100 µM
TGI (SNB-19 CNS): > 100 µM
TGI (SK-MEL-2 melanoma): > 100 µM
TGI (MCF7 breast): > 100 µM
TGI (PC-3 prostate): > 100 µM
TGI (HOP-92 NSCLC): > 100 µM
TGI (KM12 colon): > 100 µM
TGI (HCT-15 colon): > 100 µM
TGI (TK-10 renal): > 100 µM
TGI (UACC-62 melanoma): > 100 µM
TGI (MALME-3M melanoma): > 100 µM
TGI (NCI-H522 lung): > 100 µM
TGI (SK-MEL-28 melanoma): > 100 µM
TGI (MDA-MB-231 breast): > 100 µM
TGI (UO-31 renal): > 100 µM
